B1: Daclizumab (antibody, chains of the INN, looked up, V domains shown)
VH: QVQLVQSGAEVKKPGSSVKVSCKASGYTFTSYRMHWVRQAPGQGLEWIGYINPSTGYTEYNQKFKDKATITADESTNTAYMELSSLRSEDTAVYYCARGGGVFDYWGQGTLVTVSS
VL: DIQMTQSPSTLSASVGDRVTITCSASSSISYMHWYQQKPGKAPKLLIYTTSNLASGVPARFSGSGSGTEFTLTISSLQPDDFATYYCHQRSTYPLTFGQGTKVEVK
notes: humanized monoclonal antibody against the alpha chain of IL2-receptor complex, CAS number 152923-59-3; b50 calls it Simulect

Key:
Assay type in all cases: cell-based, human
[1] = tested on: CMV strain NEWT infected autologous monocytes; test: Response of expanded T cells to NEWT infected autologous monocytes / iDC; conditions: co-culture 18 h, T cell/target ratio 10:1
Procedure: Differentiated monocytes infected with CMV-related laboratory wildtype strain NEWT were used as targets. To mimic CMV-infection, autologous LCL were pulsed with 1 μg/mL overlapping CMVpp65/IE-1 peptide pools, whereas unpulsed LCL display uninfected targets. Targets were labeled with 10 μM carboxyfluorescein succinimidyl ester (CFDA-SE Molecular Probes). As controls, unpulsed LCL and uninfected differentiated monocytes (Fibroblast incubated) were labeled with 5 μM dimethyldodecylamine oxide-succinimidyl ester (Far Red; Invitrogen). Cells were co-cultured for 16 h in T cell/target ratio of 10:1. Probes were analyzed as triplicates using LSR-II flow cytometer. […] Analysis was gated on live/dead-discrimination staining-dye negative cells (near-IR fluorescent reactive dye, Invitrogen). The mean percent survival of pulsed or NEWT infected targets was calculated relative to antigen-unpulsed controls. Percentaged lytic activity of target lysis was calculated as follows: mean percent survival of targets in cultures containing defined numbers of effector T cells in comparison to control cells without T cells. […]
Following antigen specific stimulation, cytokine secretion (IFNγ, TNFα and IL2) and activation marker expression (CD137 and CD154) were determined by intracellular fluorescence staining. […] Cells were measured with a LSR-II flow cytometer and analyzed using FlowJo Version 8 software (Tree Star). […]

[2] = tested on: CMV-specific T cells; test: Differentiation / central memory phenotype (CCR7, CD45RA, CD62L, CD127) of expanded CMV-specific T cells; conditions: for CD62L expression on purified CD8+ T cells: CD8+ T cells cultured separately; for CD62L expression on purified CD8+ T cells / CD62L expression, CD8+ T cell bulk cultures and separately cultured CD4+ T cells: FIG. 12; for expression of the cell surface marker CD62L: CMV specific T-cell lines, day 18, six independent experiments; for central/memory T cells (CCR7+ CD45RA-): after 18 days of expansion; for expansion rate and keeping the TCM phenotype with full functionality: cultivation with both IL-2 and IL-7, FIG. 13; for CD62L expression, CD8+ T cell bulk cultures and separately cultured CD4+ T cells: rapamycin LD; for TCM formation: together with either IL-2 or IL-7, FIG. 13, four independent experiments
Procedure: (§1) CMV-specific T-cells were enriched and expanded using a previously described technique (Becker et al., Nat. Med. 2001, 7, 1159-62). Briefly, 4×10^7 autologous PBMCs were stimulated for 6 h with 1 μg/mL overlapping human cytomegalovirus phosphoprotein 65 (pp65) and immediately early 1 protein (IE1) peptide pools (JPT Peptide Technologies). Pools consisted of 15-mer peptides overlapping by 10 amino acids and were dissolved in dimethyl sulfoxide (DMSO). IFNγ producing cells underwent positive selection by the IFNγ capture-system (Miltenyi Biotech) according to the protocol provided by the manufacturer. IFNγ+ cells were next cultured for 18 days in 24-well plates together with 10^7 irradiated autologous PBMCs using RPMI 1640 supplemented with 10% fetal bovine serum 1% Penicillin/Streptomycin (Biochrom) and 50 U/mL rIL2 (Chiron) and 10 ng/mL rIL7 (Cellgenix) or solitary when indicated elsewise. Where indicated, either mTor-inhibitor (sirolimus, Sigma-Aldrich) at very low dose (VLD, 2 nM) and low dose (LD, 20 nM) or IL2 receptor antagonist (Basiliximab, Simulect, Novartis) at 20 μg/mL were added from day 1 on every two days together with subsequent media supplementation.
(§2) Following antigen specific stimulation, cytokine secretion (IFNγ, TNFα and IL2) and activation marker expression (CD137 and CD154) were determined by intracellular fluorescence staining. All antibodies were purchased from Becton Dickinson (BD), except indicated. Virus infected monocytes and peptide-pool loaded LCL or monocytes (1 μg/mL IE-1/pp65) were added to T cells in diluting ratio of 1:10. Unpulsed LCL or monocytes (DMSO incubated) display unstimulated control. For effector cytokine detection, cultured T cells were re-stimulated for 18 h in the presence of 1 μg/mL brefeldin A (Sigma-Aldrich). For CD107a (H4A3) detection, 2 μM monensin (Golgi Stop, BD) was ancillary added. Cells were then harvested and phenotype was stained with monoclonal antibodies for surface markers CD3 (UCHT1, eBioscience), CD8 (3B5, Invitrogen) and CD4 (SK3). To define memory phenotypes, T cells were extracellularly stained for CCR7 (#150503, R&D), CD62L (DREG56, Beckman Coulter), CD45RA (2H4LDH11LDB9, Beckman Coulter) and CD127 (hIL-7R-M21). To exclude dead cells, live/dead-discrimination staining-dye (Invitrogen) was added. Subsequently, cells were permeabilized with Perm2 solution (BD Biosciences) and stained for IFNγ (4S.B3, eBiosciences), TNFα (MAb11), IL2 (MQ1-17H12), CD137 (4B4-1) and CD154 (TRAP1). To define regulatory T cells, T cells were stained intranuclear for Foxp3 (259D/C7) and Helios (22F6, BioLegend). For intracellular staining of Foxp3 and Helios, Foxp3 staining kit from eBioscience was used. Cells were measured with a LSR-II flow cytometer and analyzed using FlowJo Version 8 software (Tree Star). Lymphocytes were gated based on the FSC versus SSC profile and subsequently gated on FSC (height) versus FSC to exclude doublets.

[3] = tested on: CMV-specific T cells; test: Expansion of CMV-specific T cell culture over 18 days; conditions: for expansion of central memory T cells (TCM): after 18 d of treatment, FIG. 4D
Procedure: as §1

[4] = tested on: CMV-specific T cells; test: Intracellular cytokine and activation marker staining after antigen specific stimulation with peptide loaded APCs; conditions: for quantity and quality of virus-specific T cells: in vitro
Procedure: as §2
CD4+ and CD8+ T cells (A Sirolimus; B aIL2R antagonist). Frequencies were assessed following antigen specific stimulation. Specific T-cells were stimulated for 18 h (16 h Brefeldin A) w/peptide loaded APCs in ratio of 1:10. APCs were pulsed with 1 μg/mL IE-1/pp65 peptide pool. IFNγ, TNFα and IL2 cytokine secretion and CD137 and CD154 activation marker expression were determined by intracellular staining. Cells were permeabilized and stained for IFNγ, IL2, TNFα, live/dead dye, CD3, CD4, CD8, CD137 and CD154.

[5] = tested on: CMV-specific T cells; test: CD4+ and CD8+ expression of CMV-specific T cells after 18 days of expansion (flow cytometry); conditions: for CD4+/CD8+ T cell ratio: after 18 days of expansion, Sirolimus LD 20 nmol/l or VLD 2 nmol/l, aIL2R 20 μg/mL, every 2 days; for CD4+ T cell proportion in the culture: after 18 d expansion
Procedure: as §1
as §2, with “Lymphocytes were gated based on the FSC versus SSC profile and subsequently gated on FSC (height) versus FSC to exclude doublets.” left out

[6] = day 18, after antigen specific stimulation

Molecule | response to NEWT infected autologous monocytes (IFNγ, TNFα, CD137, CD154) [1] | CD62L expression on purified CD8+ T cells [2] | expression of the cell surface marker CD62L [2] | central/memory T cells (CCR7+ CD45RA-) [2] | expansion rate and keeping the TCM phenotype with full functionality [2] | CD62L expression, CD8+ T cell bulk cultures and separately cultured CD4+ T cells [2] | TCM formation [2] | clonal expansion ([3]; 18 days of expansion) | expansion of central memory T cells (TCM) [3] | CD137 activation marker expression on CD8+ T cells [4, 6] | CD137 and CD154 activation marker expression on CD4+ T cells [4, 6] | quantity and quality of virus-specific T cells [4] | CD4+/CD8+ T cell ratio [5] | CD4+ T cell proportion in the culture [5]
CO[C@H]1C[C@@H]2CC[C@@H](C)[C@@](O)(O2)C(=O)C(=O)N2CCCC[C@H]2C(=O)O[C@H]([C@H](C)C[C@@H]2CC[C@@H](O)[C@H](OC)C2)CC(=O)[C@H](C)/C=C(\C)[C@@H](O)[C@@H](OC)C(=O)[C@H](C)C[C@H](C)/C=C/C=C/C=C/1C [Sirolimus] | superiorly respond | could not be enhanced | significant prolonged expression | significantly increases central/memory T cells | best results | increased CD62L expression | promotes TCM formation | without affecting clonal expansion | sequential expansion of both CD4 and CD8 central memory T cells | dose-dependent elevated | not impaired | enhance the quantity and quality | more balanced CD4+/CD8+ T cell ratio | increased the CD4+ T cell proportion
Basiliximab [aIL2R] | superiorly respond | could not be enhanced | significant prolonged expression | significantly increases central memory T cells | best results | increased CD62L expression | promotes TCM formation |  | sequential expansion of both CD4 and CD8 central memory T cells | dose-dependent elevated |  |  | more balanced CD4+/CD8+ T cell ratio | 
B1 |  |  |  |  |  |  |  |  |  |  |  | enhance the quantity and quality |  | increased the CD4+ T cell proportion

Reference: patent US9763985B2, “Antigen-specific central-memory T cell preparations having high CD4+ fraction” (priority 2011, dated 2017)
